Assay results as given in BigSolDB 2.1.

CC(=O)Nc1ccc(/C=N/NC(N)=S)cc1
solubility (mole fraction)
Conditions	288.15 K	293.15 K	298.15 K	303.15 K	308.15 K	313.15 K	318.15 K
in n-hexane	5.55e-06	7.25e-06	1.03e-05	1.34e-05	1.75e-05	2.21e-05	2.93e-05
in n-octanol	0.00038	0.000439	0.000503	0.00058	0.000673	0.000762	0.000863
